Source: ChEMBL document CHEMBL1201862, “PubChem BioAssay data set” (2004)
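Cells were grown in 96-well plates and exposed to each compound for 48 hours at five concentrations; endpoints were interpolated linearly between bracketing concentrations, or set to the highest concentration if not reached. At the GI50, growth is halved.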 Calls of active or inactive are those of the source. No stated cut-off is given here; in the data, active = GI50 up to about 1.1 µM and inactive = higher.

Columns and labels:
Test in all cases: inhibition of tumour cell growth, NCI panel, 48 h
[1] = test system: MOLT-4
[2] = test system: COLO 205
[3] = test system: HCT-15
[4] = test system: DU-145
[5] = test system: SK-MEL-28
[6] = test system: BT-549
[7] = test system: K562
[8] = test system: MDA-MB-231
[9] = test system: EKVX
[10] = test system: IGROV-1
[11] = test system: SW-620
[12] = test system: MDA-N
[13] = test system: CAKI-1
[14] = test system: T47D
[15] = test system: HCC 2998
[16] = test system: NCI-H23
[17] = test system: OVCAR-8
[18] = test system: HOP-62
[19] = test system: U-251
[20] = test system: SK-MEL-2

Row | SMILES | GI50 [1] | GI50 [2] | GI50 [3] [µM] | GI50 [4] | GI50 [5] | GI50 [6] | GI50 [7] | GI50 [8] | GI50 [9] | GI50 [10] | GI50 [11] | GI50 [12] | GI50 [13] | GI50 [14] | GI50 [15] | GI50 [16] | GI50 [17] | GI50 [18] | GI50 [19] | GI50 [20]
1 | O=C1NNC2(C(=O)N1)c1ccccc1-c1ccccc12 | > 10 µM (inactive) | > 10 µM (inactive) | > 10 | > 10 µM (inactive) | > 10 µM (inactive) | > 10 µM (inactive) | > 10 µM (inactive) | > 10 µM (inactive) | 6.71 µM (inactive) | > 10 µM (inactive) | > 10 µM (inactive) | > 10 µM (inactive) | > 10 µM (inactive) | 2.55 µM (inactive) | > 10 µM (inactive) | > 10 µM (inactive) | > 10 µM (inactive) | > 10 µM (inactive) | – | –
2 | COC(=O)c1c2c(cc3c1CC1(Cc4ccc(C(C)=O)cc4C1)C3)CCC2 (stereo unspecified) | 21 µM (inactive) | 31.9 µM (inactive) | 31.8 | 79.3 µM (inactive) | 63.5 µM (inactive) | 56.8 µM (inactive) | 14.9 µM (inactive) | 20.4 µM (inactive) | 42.7 µM (inactive) | 87.5 µM (inactive) | 28.3 µM (inactive) | 7.64 µM (inactive) | 53.3 µM (inactive) | 31.1 µM (inactive) | > 10 µM (inactive) | 46.5 µM (inactive) | 68.9 µM (inactive) | 91.2 µM (inactive) | 50.7 µM (inactive) | –
3 | COc1cc(S(=O)(=O)Nc2ccc(-c3csc(/N=C\c4ccccc4O)n3)cc2)ccc1Cl | 15.8 µM (inactive) | 41.2 µM (inactive) | 51.4 | 45.9 µM (inactive) | 39.3 µM (inactive) | 43.7 µM (inactive) | 28.2 µM (inactive) | 53.6 µM (inactive) | 29.8 µM (inactive) | 56 µM (inactive) | 37.8 µM (inactive) | 33.9 µM (inactive) | > 100 µM (inactive) | 16.9 µM (inactive) | – | 52.7 µM (inactive) | > 100 µM (inactive) | 65.3 µM (inactive) | – | 29.2 µM (inactive)
4 | COc1cccc(C(C#N)NNC(=O)c2c(Cl)c(Cl)c(Cl)c(Cl)c2-c2nc3cc(C(=O)c4ccccc4)ccc3[nH]2)c1O (stereo unspecified) | 2.78 µM (inactive) | 3.24 µM (inactive) | 4.06 | 6.4 µM (inactive) | 9.73 µM (inactive) | 6.37 µM (inactive) | 3.27 µM (inactive) | 4.15 µM (inactive) | 14.3 µM (inactive) | 5.77 µM (inactive) | 6.01 µM (inactive) | 1.68 µM (inactive) | 6.25 µM (inactive) | 2.79 µM (inactive) | – | 5.74 µM (inactive) | 11.3 µM (inactive) | 2.03 µM (inactive) | 4.44 µM (inactive) | 4.05 µM (inactive)
5 | O=C(O)CCC(N/N=N/c1ccc(-c2nc3ccccc3[nH]2)cc1)C(=O)O (stereo unspecified) | 31.6 µM (inactive) | > 100 µM (inactive) | 34 | > 100 µM (inactive) | > 100 µM (inactive) | 23.9 µM (inactive) | 30.1 µM (inactive) | > 100 µM (inactive) | > 100 µM (inactive) | 20.8 µM (inactive) | > 100 µM (inactive) | 56 µM (inactive) | 61.4 µM (inactive) | 30.7 µM (inactive) | – | 71.3 µM (inactive) | 34.8 µM (inactive) | 48.8 µM (inactive) | 43.7 µM (inactive) | 56.6 µM (inactive)
6 | CCCCCCCCOP(=O)(O)OP(=O)(O)OCC1OC(n2ccc(N)nc2=O)C(O)C1O (stereo unspecified) | > 100 µM (inactive) | > 100 µM (inactive) | > 100 | – | > 100 µM (inactive) | > 100 µM (inactive) | > 100 µM (inactive) | > 100 µM (inactive) | > 100 µM (inactive) | > 100 µM (inactive) | > 100 µM (inactive) | > 100 µM (inactive) | > 100 µM (inactive) | > 100 µM (inactive) | > 100 µM (inactive) | > 100 µM (inactive) | > 100 µM (inactive) | > 100 µM (inactive) | > 100 µM (inactive) | > 100 µM (inactive)
7 | CCSc1nc(COC(=O)NC)c(COC(=O)NC)n1C | 43.4 µM (inactive) | > 74.3 µM (inactive) | > 100 | – | > 100 µM (inactive) | > 100 µM (inactive) | > 68.1 µM (inactive) | > 100 µM (inactive) | > 100 µM (inactive) | > 79.8 µM (inactive) | > 100 µM (inactive) | > 100 µM (inactive) | 49.5 µM (inactive) | > 100 µM (inactive) | > 85.7 µM (inactive) | 99.5 µM (inactive) | > 100 µM (inactive) | 99.3 µM (inactive) | > 84.9 µM (inactive) | > 89.7 µM (inactive)
